According to PubChem BioAssay (NCI):
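Growth conditions: 96-well plates. Treatment: test compound, 48 hours, 5 concentrations. Analysis: linear interpolation between bracketing concentrations; unreached endpoints set to highest concentration. The concentration for 50% growth inhibition is given as GI50. TGI denotes the concentration required for complete inhibition of growth.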

What was measured:
Assay in all cases: NCI-60 cell line screen, 48 h
SNB-75 CNS = tested on: SNB-75 CNS
SF-295 CNS = tested on: SF-295 CNS
HOP-62 NSCLC = tested on: HOP-62 NSCLC
BT-549 breast = tested on: BT-549 breast
UACC-257 melanoma = tested on: UACC-257 melanoma
HL-60(TB) leukemia = tested on: HL-60(TB) leukemia
T-47D breast = tested on: T-47D breast
NCI-H226 lung = tested on: NCI-H226 lung
SNB-19 CNS = tested on: SNB-19 CNS
HCC-2998 colon = tested on: HCC-2998 colon
LOX IMVI melanoma = tested on: LOX IMVI melanoma
M14 melanoma = tested on: M14 melanoma
KM12 colon = tested on: KM12 colon
CCRF-CEM leukemia = tested on: CCRF-CEM leukemia
HS 578T breast = tested on: HS 578T breast
MALME-3M melanoma = tested on: MALME-3M melanoma
SR leukemia = tested on: SR leukemia
SF-268 CNS = tested on: SF-268 CNS
TK-10 renal = tested on: TK-10 renal
RPMI-8226 leukemia = tested on: RPMI-8226 leukemia
SK-MEL-28 melanoma = tested on: SK-MEL-28 melanoma
OVCAR-4 ovarian = tested on: OVCAR-4 ovarian
SF-539 CNS = tested on: SF-539 CNS
MOLT-4 leukemia = tested on: MOLT-4 leukemia
SK-OV-3 ovarian = tested on: SK-OV-3 ovarian
U251 CNS = tested on: U251 CNS
DU-145 prostate = tested on: DU-145 prostate
MCF7 breast = tested on: MCF7 breast
ACHN renal = tested on: ACHN renal
HCT-15 colon = tested on: HCT-15 colon
IGROV1 ovarian = tested on: IGROV1 ovarian
COLO 205 colon = tested on: COLO 205 colon
UO-31 renal = tested on: UO-31 renal
OVCAR-5 ovarian = tested on: OVCAR-5 ovarian
OVCAR-8 ovarian = tested on: OVCAR-8 ovarian
NCI/ADR-RES ovarian = tested on: NCI/ADR-RES ovarian
NCI-H23 lung = tested on: NCI-H23 lung
HCT-116 colon = tested on: HCT-116 colon
A498 renal = tested on: A498 renal
MDA-MB-435 = tested on: MDA-MB-435
786-0 renal = tested on: 786-0 renal
K-562 leukemia = tested on: K-562 leukemia
HT29 colon = tested on: HT29 colon
HOP-92 NSCLC = tested on: HOP-92 NSCLC
RXF 393 renal = tested on: RXF 393 renal
UACC-62 melanoma = tested on: UACC-62 melanoma
SK-MEL-2 melanoma = tested on: SK-MEL-2 melanoma
SN12C renal = tested on: SN12C renal
PC-3 prostate = tested on: PC-3 prostate
OVCAR-3 ovarian = tested on: OVCAR-3 ovarian
NCI-H460 lung = tested on: NCI-H460 lung
NCI-H522 lung = tested on: NCI-H522 lung
SW-620 colon = tested on: SW-620 colon
EKVX NSCLC = tested on: EKVX NSCLC
MDA-MB-231 breast = tested on: MDA-MB-231 breast
SK-MEL-5 melanoma = tested on: SK-MEL-5 melanoma
A549 NSCLC = tested on: A549 NSCLC
CAKI-1 renal = tested on: CAKI-1 renal

Work on `O=C1/C(=C/c2ccccc2)CN(C(=O)C(Cl)Cl)C/C1=C\c1ccccc1` yielded a GI50 (SNB-75 CNS) of 1090 nM, a TGI (SNB-75 CNS) of 2310 nM and a GI50 (SF-295 CNS) of 597 nM. For the same compound, the TGI (SF-295 CNS) was 1860 nM, the GI50 (HOP-62 NSCLC) was 1390 nM and the TGI (HOP-62 NSCLC) was 2840 nM. The GI50 (BT-549 breast) was 1240 nM, the TGI (BT-549 breast) was 2690 nM and the GI50 (UACC-257 melanoma) was 1420 nM. For the same compound, the TGI (UACC-257 melanoma) was 3130 nM, the GI50 (HL-60(TB) leukemia) was 360 nM and the TGI (HL-60(TB) leukemia) was 2040 nM. The GI50 (T-47D breast) was 1190 nM, the TGI (T-47D breast) was 4110 nM and the GI50 (NCI-H226 lung) was 1220 nM. It also gave a TGI (NCI-H226 lung) of 5170 nM, a GI50 (SNB-19 CNS) of 495 nM and a TGI (SNB-19 CNS) of 1780 nM. It also gave a GI50 (HCC-2998 colon) of 703 nM, a TGI (HCC-2998 colon) of 1980 nM and a GI50 (LOX IMVI melanoma) of 139 nM. It also gave a TGI (LOX IMVI melanoma) of 353 nM, a GI50 (M14 melanoma) of 622 nM and a TGI (M14 melanoma) of 2150 nM. For the same compound, the GI50 (KM12 colon) was 267 nM, the TGI (KM12 colon) was 845 nM and the GI50 (CCRF-CEM leukemia) was 152 nM. For the same compound, the GI50 (HS 578T breast) was 1320 nM, the TGI (HS 578T breast) was 6860 nM and the GI50 (MALME-3M melanoma) was 996 nM. It also gave a TGI (MALME-3M melanoma) of 3060 nM, a GI50 (SR leukemia) of 110 nM and a GI50 (SF-268 CNS) of 1750 nM. For the same compound, the TGI (SF-268 CNS) was 5200 nM, the GI50 (TK-10 renal) was 1790 nM and the TGI (TK-10 renal) was 3220 nM. For the same compound, the GI50 (RPMI-8226 leukemia) was 47.4 nM, the TGI (RPMI-8226 leukemia) was 278 nM and the GI50 (SK-MEL-28 melanoma) was 680 nM. It also gave a TGI (SK-MEL-28 melanoma) of 1810 nM, a GI50 (OVCAR-4 ovarian) of 1120 nM and a TGI (OVCAR-4 ovarian) of 2440 nM. For the same compound, the GI50 (SF-539 CNS) was 884 nM, the TGI (SF-539 CNS) was 2250 nM and the GI50 (MOLT-4 leukemia) was 369 nM. The GI50 (SK-OV-3 ovarian) was 1770 nM, the TGI (SK-OV-3 ovarian) was 3230 nM and the GI50 (U251 CNS) was 325 nM. For the same compound, the TGI (U251 CNS) was 1240 nM, the GI50 (DU-145 prostate) was 1210 nM and the TGI (DU-145 prostate) was 2470 nM. For the same compound, the GI50 (MCF7 breast) was 113 nM, the TGI (MCF7 breast) was 886 nM and the GI50 (ACHN renal) was 438 nM. It also gave a TGI (ACHN renal) of 1440 nM, a GI50 (HCT-15 colon) of 248 nM and a TGI (HCT-15 colon) of 770 nM. It also gave a GI50 (IGROV1 ovarian) of 708 nM, a TGI (IGROV1 ovarian) of 2200 nM and a GI50 (COLO 205 colon) of 1190 nM. It also gave a TGI (COLO 205 colon) of 3010 nM, a GI50 (UO-31 renal) of 1290 nM and a TGI (UO-31 renal) of 2620 nM. For the same compound, the GI50 (OVCAR-5 ovarian) was 1060 nM, the TGI (OVCAR-5 ovarian) was 2850 nM and the GI50 (OVCAR-8 ovarian) was 442 nM. For the same compound, the TGI (OVCAR-8 ovarian) was 1680 nM, the GI50 (NCI/ADR-RES ovarian) was 452 nM and the TGI (NCI/ADR-RES ovarian) was 4920 nM. For the same compound, the GI50 (NCI-H23 lung) was 822 nM, the TGI (NCI-H23 lung) was 2730 nM and the GI50 (HCT-116 colon) was 209 nM. For the same compound, the TGI (HCT-116 colon) was 527 nM, the GI50 (A498 renal) was 1480 nM and the TGI (A498 renal) was 3000 nM. It also gave a GI50 (MDA-MB-435) of 312 nM, a TGI (MDA-MB-435) of 1030 nM and a GI50 (786-0 renal) of 1380 nM. For the same compound, the TGI (786-0 renal) was 2820 nM, the GI50 (K-562 leukemia) was 134 nM and the GI50 (HT29 colon) was 295 nM. It also gave a TGI (HT29 colon) of 1060 nM, a GI50 (HOP-92 NSCLC) of 1260 nM and a TGI (HOP-92 NSCLC) of 3090 nM. The GI50 (RXF 393 renal) was 914 nM, the TGI (RXF 393 renal) was 2330 nM and the GI50 (UACC-62 melanoma) was 702 nM. For the same compound, the TGI (UACC-62 melanoma) was 2000 nM, the GI50 (SK-MEL-2 melanoma) was 1790 nM and the TGI (SK-MEL-2 melanoma) was 4070 nM. For the same compound, the GI50 (SN12C renal) was 430 nM, the TGI (SN12C renal) was 1260 nM and the GI50 (PC-3 prostate) was 297 nM. The TGI (PC-3 prostate) was 1080 nM, the GI50 (OVCAR-3 ovarian) was 330 nM and the TGI (OVCAR-3 ovarian) was 1060 nM. For the same compound, the GI50 (NCI-H460 lung) was 1300 nM, the TGI (NCI-H460 lung) was 3010 nM and the GI50 (NCI-H522 lung) was 1080 nM. It also gave a TGI (NCI-H522 lung) of 2690 nM, a GI50 (SW-620 colon) of 135 nM and a TGI (SW-620 colon) of 440 nM. It also gave a GI50 (EKVX NSCLC) of 894 nM, a TGI (EKVX NSCLC) of 3060 nM and a GI50 (MDA-MB-231 breast) of 807 nM. The TGI (MDA-MB-231 breast) was 2460 nM, the GI50 (SK-MEL-5 melanoma) was 698 nM and the TGI (SK-MEL-5 melanoma) was 1940 nM. The GI50 (A549 NSCLC) was 1700 nM, the TGI (A549 NSCLC) was 3920 nM and the GI50 (CAKI-1 renal) was 1420 nM. It also gave a TGI (CAKI-1 renal) of 2950 nM.
